# Reference: PubChem BioAssay (NCI)
#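 Exposure lasted 48 hours, with cells grown in 96-well plates and compounds tested at five concentrations. GI50 is the concentration that inhibits growth by half. TGI: total growth inhibition.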
# Columns and labels:
# Assay in all cases: DTP human tumour cell line panel, 48 h
# [1] = system: MDA-MB-231 breast
# [2] = system: KM12 colon
# [3] = system: LOX IMVI melanoma
# [4] = system: OVCAR-3 ovarian
# [5] = system: RXF 393 renal
# [6] = system: OVCAR-8 ovarian
# [7] = system: SN12C renal
# [8] = system: NCI-H23 lung
# [9] = system: SK-MEL-2 melanoma
# [10] = system: EKVX NSCLC
# [11] = system: MALME-3M melanoma
# [12] = system: NCI/ADR-RES ovarian
# [13] = system: HT29 colon
# [14] = system: A549 NSCLC
# [15] = system: UO-31 renal
# [16] = system: COLO 205 colon
# [17] = system: DU-145 prostate
# [18] = system: CAKI-1 renal
# [19] = system: K-562 leukemia
# [20] = system: MDA-MB-435
# [21] = system: SF-268 CNS
# [22] = system: TK-10 renal
# [23] = system: U251 CNS
# [24] = system: HCT-116 colon
# [25] = system: UACC-62 melanoma
# [26] = system: T-47D breast
# [27] = system: ACHN renal
# [28] = system: HOP-62 NSCLC
# [29] = system: MCF7 breast
# [30] = system: OVCAR-4 ovarian
# [31] = system: NCI-H460 lung
# [32] = system: UACC-257 melanoma
# [33] = system: OVCAR-5 ovarian
# [34] = system: A498 renal
# [35] = system: NCI-H226 lung
# [36] = system: MOLT-4 leukemia
# [37] = system: NCI-H522 lung
# [38] = system: BT-549 breast
# [39] = system: SF-539 CNS
# [40] = system: 786-0 renal
# [41] = system: SK-MEL-5 melanoma
# [42] = system: HS 578T breast
# [43] = system: CCRF-CEM leukemia
# [44] = system: PC-3 prostate
# [45] = system: SK-MEL-28 melanoma
# [46] = system: SF-295 CNS
# [47] = system: IGROV1 ovarian
# [48] = system: SR leukemia
# [49] = system: HL-60(TB) leukemia
# [50] = system: SK-OV-3 ovarian
# [51] = system: SW-620 colon
# [52] = system: HOP-92 NSCLC
# [53] = system: HCT-15 colon
# [54] = system: SNB-19 CNS
# [55] = system: M14 melanoma
# [56] = system: HCC-2998 colon
compound,measurement,setting,value
CNNC(=N\S(=O)(=O)c1cc(C(=O)Nc2ccc(Cl)cc2)c(Cl)cc1SCc1ccccc1)/N=C/c1ccc([N+](=O)[O-])s1,GI50,[1],6.2 µM
same,TGI,[1],> 100 µM
same,GI50,[2],> 100 µM
same,TGI,[2],> 100 µM
same,GI50,[3],> 100 µM
same,TGI,[3],> 100 µM
same,GI50,[4],> 100 µM
same,TGI,[4],> 100 µM
same,GI50,[5],> 100 µM
same,TGI,[5],> 100 µM
same,GI50,[6],> 100 µM
same,TGI,[6],> 100 µM
same,GI50,[7],6.6 µM
same,TGI,[7],> 100 µM
same,GI50,[8],> 100 µM
same,TGI,[8],> 100 µM
same,GI50,[9],> 100 µM
same,TGI,[9],> 100 µM
same,GI50,[10],> 54.4 µM
same,TGI,[10],> 100 µM
same,GI50,[11],> 100 µM
same,TGI,[11],> 100 µM
same,GI50,[12],> 100 µM
same,TGI,[12],> 100 µM
same,GI50,[13],> 28.2 µM
same,TGI,[13],> 100 µM
same,GI50,[14],20.5 µM
same,TGI,[14],> 100 µM
same,GI50,[15],> 100 µM
same,TGI,[15],> 100 µM
same,GI50,[16],8.97 µM
same,TGI,[16],> 100 µM
same,GI50,[17],> 20.3 µM
same,TGI,[17],> 100 µM
same,GI50,[18],> 100 µM
same,TGI,[18],> 100 µM
same,GI50,[19],15.9 µM
same,TGI,[19],> 100 µM
same,GI50,[20],23.4 µM
same,TGI,[20],> 100 µM
same,GI50,[21],> 100 µM
same,TGI,[21],> 100 µM
same,GI50,[22],> 100 µM
same,TGI,[22],> 100 µM
same,GI50,[23],> 100 µM
same,TGI,[23],> 100 µM
same,GI50,[24],2.3 µM
same,TGI,[24],> 100 µM
same,GI50,[25],> 100 µM
same,TGI,[25],> 100 µM
same,GI50,[26],7.07 µM
same,TGI,[26],> 100 µM
same,GI50,[27],> 100 µM
same,TGI,[27],> 100 µM
same,GI50,[28],> 36 µM
same,TGI,[28],> 100 µM
same,GI50,[29],> 100 µM
same,TGI,[29],> 100 µM
same,GI50,[30],> 100 µM
same,TGI,[30],> 100 µM
same,GI50,[31],3.91 µM
same,TGI,[31],> 27.7 µM
same,GI50,[32],> 100 µM
same,TGI,[32],> 100 µM
same,GI50,[33],> 100 µM
same,TGI,[33],> 100 µM
same,GI50,[34],> 100 µM
same,TGI,[34],> 100 µM
same,GI50,[35],> 100 µM
same,TGI,[35],> 100 µM
same,GI50,[36],> 100 µM
same,TGI,[36],> 100 µM
same,GI50,[37],> 100 µM
same,TGI,[37],> 100 µM
same,GI50,[38],> 100 µM
same,TGI,[38],> 100 µM
same,GI50,[39],> 100 µM
same,TGI,[39],> 100 µM
same,GI50,[40],> 100 µM
same,TGI,[40],> 100 µM
same,GI50,[41],6.57 µM
same,TGI,[41],> 45.9 µM
same,GI50,[42],38.2 µM
same,TGI,[42],> 100 µM
same,GI50,[43],> 85.1 µM
same,TGI,[43],> 100 µM
same,GI50,[44],> 100 µM
same,TGI,[44],> 100 µM
same,GI50,[45],> 100 µM
same,TGI,[45],> 100 µM
same,GI50,[46],> 100 µM
same,TGI,[46],> 100 µM
same,GI50,[47],> 70.1 µM
same,TGI,[47],> 100 µM
same,GI50,[48],> 100 µM
same,TGI,[48],> 100 µM
same,GI50,[49],> 100 µM
same,TGI,[49],> 100 µM
same,GI50,[50],> 100 µM
same,TGI,[50],> 100 µM
same,GI50,[51],> 20.9 µM
same,TGI,[51],> 100 µM
same,GI50,[52],4.54 µM
same,TGI,[52],62.2 µM
same,GI50,[53],22.5 µM
same,TGI,[53],> 100 µM
same,GI50,[54],> 100 µM
same,TGI,[54],> 100 µM
same,GI50,[55],10.1 µM
same,TGI,[55],> 100 µM
same,GI50,[56],2.83 µM
same,TGI,[56],> 100 µM
